In the supplement of paper PMC10307832:

Assays:
Assay in all cases: relative viability (nuclei count vs DMSO), 5 days (fraction); higher = more cells survive
BI-D1870 + Dasatinib = compound: CC(C)CCN1c2nc(Nc3cc(F)c(O)c(F)c3)ncc2N(C)C(=O)C1C [BI-D1870] + Cc1nc(Nc2ncc(C(=O)Nc3c(C)cccc3Cl)s2)cc(N2CCN(CCO)CC2)n1 [Dasatinib] (partner 0.075 µM)
How it was run: (§1)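 Lung cancer cell lines in 1536-well plates got either a single drug or a fixed anchor-drug dose together with five library-drug doses (not always all listed) in √10 steps, by pin tool, on the day after seeding. Nuclei were counted after 5 days, and relative viability is the treated-to-vehicle ratio of nuclei counts. Values are medians of duplicate plates.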

Zebularine + Pictilisib = compound: O=c1ncccn1[C@@H]1O[C@H](CO)[C@@H](O)[C@H]1O [Zebularine] + CS(=O)(=O)N1CCN(Cc2cc3nc(-c4cccc5[nH]ncc45)nc(N4CCOCC4)c3s2)CC1 [Pictilisib] (partner 1 µM)
How it was run: as §1

BI-D1870 + Olaparib = compound: CC(C)CCN1c2nc(Nc3cc(F)c(O)c(F)c3)ncc2N(C)C(=O)C1C [BI-D1870] + O=C(c1cc(Cc2n[nH]c(=O)c3ccccc23)ccc1F)N1CCN(C(=O)C2CC2)CC1 [Olaparib] (partner 8 µM)
How it was run: as §1

Zebularine + Olaparib = compound: O=c1ncccn1[C@@H]1O[C@H](CO)[C@@H](O)[C@H]1O [Zebularine] + O=C(c1cc(Cc2n[nH]c(=O)c3ccccc23)ccc1F)N1CCN(C(=O)C2CC2)CC1 [Olaparib] (partner 8 µM)
How it was run: as §1

Cell Line: UMC-11
- relative viability (BI-D1870 + Dasatinib; first compound 0.04 µM): 0.579
- relative viability (BI-D1870 + Dasatinib; first compound 0.1265 µM): 0.454
- relative viability (BI-D1870 + Dasatinib; first compound 0.4 µM): 0.481
- relative viability (BI-D1870 + Dasatinib; first compound 1.265 µM): 0.393
- relative viability (BI-D1870 + Dasatinib; first compound 4 µM): 0.142
- relative viability (Zebularine + Pictilisib; first compound 1 µM): 0.89
- relative viability (Zebularine + Pictilisib; first compound 3.162 µM): 0.451
- relative viability (Zebularine + Pictilisib; first compound 10 µM): 0.467
- relative viability (Zebularine + Pictilisib; first compound 31.62 µM): 0.653
- relative viability (Zebularine + Pictilisib; first compound 100 µM): 0.35
- relative viability (BI-D1870 + Olaparib; first compound 0.04 µM): 0.36
- relative viability (BI-D1870 + Olaparib; first compound 0.1265 µM): 0.363
- relative viability (BI-D1870 + Olaparib; first compound 0.4 µM): 0.369
- relative viability (BI-D1870 + Olaparib; first compound 1.265 µM): 0.374
- relative viability (BI-D1870 + Olaparib; first compound 4 µM): 0.204
- relative viability (Zebularine + Olaparib; first compound 1 µM): 0.407
- relative viability (Zebularine + Olaparib; first compound 3.162 µM): 0.377
- relative viability (Zebularine + Olaparib; first compound 10 µM): 0.346
- relative viability (Zebularine + Olaparib; first compound 31.62 µM): 0.362
- relative viability (Zebularine + Olaparib; first compound 100 µM): 0.293
